Measurements reported in patent US6911443B2 (Bayer Aktiengesellschaft, priority 2000, dated 2005).
Like-named read-outs stand apart in the source and are kept apart here.

Target: T1, human Syk (GST-Syk) (Homo sapiens, UniProt P43405)
T1 construct: A cDNA fragment encoding human Syk openreading frame was cloned; made in house; host or cells: Sf21 insect cells (baculovirus, transfer vector pAcG2T)
Test: Syk tyrosine kinase inhibitory assay
Assay type: biochemical
Outline: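 Readout: streptavidin-captured biotin-AL peptide probed with europium-4G10 anti-phosphotyrosine, time-resolved fluorescence (ex 340/em 615 nm). Reaction ran 1 h at room temperature with 30 μM ATP, 3 μM peptide, 0.65 nM Sf21-expressed GST-Syk and 0.25% DMSO, pH 8.0.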

[1] = Table 13, read-out: Activity grade
[2] = in vitro, compounds as yielded by solid phase synthesis, purity about 40 to 90%, read-out: Activity grade (IC50 class)
[3] = Table 17, IC50 classes, read-out: Activity grade
[4] = Table 11, read-out: Activity grade
[5] = Table 16, read-out: Activity grade
[6] = in vitro, compounds as yielded by solid phase synthesis, purity about 40 to 90%

SMILES	IC50 [2] [nM]	further results
COC(=O)c1cccnc1Nc1nc(-c2ccc(OC)c(OC)c2)cc2nccn12 [Example 14-36]	–	IC50 [1]: 2000 to 10000 nM
COc1ccc(-c2cc3nccn3c(Sc3ccc(N4CCN(C)CC4)cc3)n2)cc1OC [Example 13-16]	< 500	–
COc1ccc(Nc2nc(-c3ccc(OC)c(OC)c3)cc3nccn23)cc1OC [Example 11-84]	< 500	–
COc1ccc(-c2cc3nccn3c(Sc3ccc(CCc4nnn[nH]4)cc3)n2)cc1OC [Example 24]	–	IC50 [3]: < 500 nM
COc1ccc(-c2cc3nccn3c(Sc3ccc(S(=O)(=O)N4CCCCC4)cc3)n2)cc1OC [Example 16-2]	–	IC50 (Table 15, read-out: Activity grade): < 500 nM
COc1ccc(-c2cc3nccn3c(Nc3ccc(CCC(=O)O)cc3)n2)cc1OC [Example 11-24]	< 500	–
COc1ccc(-c2cc3nccn3c(N(C(C)=O)c3ccccc3)n2)cc1OC(C)=O [Example 10]	< 500	IC50 [3]: 2000 to 10000 nM
COc1ccc(-c2cc3nccn3c(N3CCN(c4ccc([N+](=O)[O-])cc4)CC3)n2)cc1OC [Example 9-35]	2000 to 10000	–
COc1ccc(-c2cc3nccn3c(Nc3ccc(Br)cn3)n2)cc1OC [Example 12-9]	–	IC50 [4]: < 500 nM
COc1ccc(-c2cc3nccn3c(Nc3ccc(SCC(=O)O)cc3)n2)cc1OC [Example 11-20]	< 500	–
COc1ccc(-c2cc3nccn3c(Nc3ccccc3S(N)(=O)=O)n2)cc1OC [Example 11-113]	< 500	–
COc1ccc(Nc2nc(-c3ccc(OC)c(OC)c3)cc3nccn23)cc1NCCN1CCOCC1 [Example 11-111]	2000 to 10000	–
COc1cc(-c2cc3nccn3c(Nc3ccccc3)n2)ccc1O [Example 12-19]	–	IC50 [4]: < 500 nM
COc1ccc(-c2cc3nccn3c(N3CCCCC3)n2)cc1OC [Example 9-54]	500 to 2000	–
COc1ccc(-c2cc3nccn3c(SC3CCCC3)n2)cc1OC [Example 14-21]	–	IC50 [1]: < 500 nM
COc1ccc(-c2cc3nccn3c(Sc3cccc(Cl)c3Cl)n2)cc1OC [Example 13-5]	2000 to 10000	–
COc1ccc(-c2cc3nccn3c(NC3=NNCS3)n2)cc1OC [Example 12-31]	–	IC50 [4]: 500 to 2000 nM
COc1ccccc1Nc1nc(-c2ccc(OC)c(OC)c2)cc2nccn12 [Example 11-8]	< 500	–
COc1ccc(-c2cc3nccn3c(N3CCc4ccccc43)n2)cc1OC [Example 9-13]	500 to 2000	–
COc1ccc(-c2cc3nccn3c(Sc3ccccc3Br)n2)cc1OC [Example 13-6]	< 500	–
CCOCCOc1cc(-c2cc3nccn3c(Nc3ccccc3)n2)ccc1OC [Example 12-28]	–	IC50 [4]: < 500 nM

SMILES	IC50 [2] [nM]	further results
COc1ccc(-c2cc3nccn3c(Nc3cccc(C(F)(F)F)c3)n2)cc1OC [Example 12-13]	–	IC50 [4]: 500 to 2000 nM
COc1ccc(-c2cc3nccn3c(N3CCSCC3)n2)cc1OC [Example 9-75]	500 to 2000	–
CCSc1nc(-c2ccc(OC)nc2)cc2nccn12 [Example 1-2]	2000 to 10000	–
CCSc1nc(-c2ccc(NCCCN3CCN(C)CC3)c(OC)c2)cc2nccn12 [Example 17-4]	–	IC50 [5]: < 500 nM
CCSc1nc(-c2ccc(OCCCN3CCN(C)CC3)c(OC)c2)cc2nccn12 [Example 5-8]	< 500	–
COc1ccc(-c2cc3nccn3c(N3CCN(C(c4ccc(F)cc4)c4ccc(F)cc4)CC3)n2)cc1OC [Example 9-45]	–	Activity grade (IC50 class) [6]: C-D
COc1ccc(-c2cc3nccn3c(Nc3ccc(CCN4C(=O)c5ccccc5C4=O)cc3)n2)cc1OC [Example 9-26]	500 to 2000	–
Clc1ccc(-c2cc3ncnn3c(Sc3ccccc3)n2)cn1 [Example 14-9]	–	Activity grade (Table 13): C-D
COc1ccc(-c2cc3nccn3c(Nc3ccc(Br)cc3Cl)n2)cc1OC [Example 11-88]	< 500	–
COc1ccc(-c2cc3nccn3c(Nc3ccc(S(=O)(=O)NC(=N)N)cc3)n2)cc1OC [Example 11-110]	< 500	–
CCSc1nc(-c2ccc(N(C)C)c(OC)c2)cc2nccn12 [Example 17-15]	–	IC50 [5]: < 500 nM
COc1ccc(-c2cc3nccn3c(Nc3ccc(NCCN4CCOCC4)cc3)n2)cc1OC [Example 11-82]	< 500	–
COc1ccc(-c2cc3nccn3c(Nc3cccc([N+](=O)[O-])c3)n2)cc1OC [Example 11-70]	< 500	–
COc1ccc(Nc2nc(-c3ccc(OC)c(OC)c3)cc3nccn23)cc1 [Example 11-17]	< 500	–
COc1ccc(-c2cc3nccn3c(N3CCC(C#N)(c4ccccc4)CC3)n2)cc1OC [Example 9-68]	2000 to 10000	–
COc1ccc(-c2cc3nccn3c(N3CCN(c4ccc(Cl)c(Cl)c4)CC3)n2)cc1OC [Example 9-42]	–	Activity grade (IC50 class) [6]: C-D
CCSc1nc(-c2ccc(OCCCN3CCC(C(N)=O)CC3)c(OC)c2)cc2nccn12 [Example 5-13]	< 500	–
COc1ccc(-c2cc3nccn3c(Nc3cccc(S(N)(=O)=O)c3)n2)cc1OC [Example 11-114]	< 500	–
COc1ccc(-c2cc3nccn3c(Nc3ccccc3C(=O)O)n2)cc1OC [Example 11-77]	< 500	–
COc1ccc(-c2cc3nccn3c(Oc3cccc(Br)c3)n2)cc1OC [Example 14-5]	–	IC50 [1]: 500 to 2000 nM
COc1ccc(-c2cc3nccn3c(SC3CCCCC3)n2)cc1OC [Example 14-29]	–	IC50 [1]: < 500 nM

SMILES	IC50 [2] [nM]	further results
CCSc1nc(-c2ccc(OC)c(OC3CCCCC3)c2)cc2nccn12 [Example 4-4]	500 to 2000	–
CCOC(=O)CCNS(=O)(=O)c1ccc(-c2cc3nccn3c(SCC)n2)cc1OC [Example 2-11]	–	Activity grade (IC50 class) [6]: C-D
COc1ccc(-c2cc3nccn3c(Nc3ccc(N4CCOCC4)cc3)n2)cc1OC [Example 11-32]	< 500	–
COc1ccc(-c2cc3ncnn3c(Nc3ccccc3C(N)=O)n2)cc1OC [Example 11-102]	< 500	–
COC(=O)c1cc(Br)ccc1Nc1nc(-c2ccc(OC)c(OC)c2)cc2nccn12 [Example 11-86]	< 500	–
COc1ccc(-c2cc3nccn3c(Nc3ccc4[nH]c(=O)[nH]c4c3)n2)cc1OC [Example 11-89]	< 500	–
COc1ccc(-c2cc3nccn3c(Nc3ccc(N)cc3)n2)cc1OC [Example 11-62]	< 500	–
CNC(=O)c1ccccc1Nc1nc(-c2ccc(OC)c(OC)c2)cc2nccn12 [Example 11-99]	< 500	–
COc1ccc(-c2cc3ncnn3c(Nc3ccc4cn[nH]c4c3)n2)cc1OC [Example 11-103]	< 500	–
CCSc1nc(-c2ccc(OC)c(NCCCCN(C)C)c2)cc2nccn12 [Example 17-1]	–	IC50 [5]: 500 to 2000 nM
COc1ccc(-c2cc3nccn3c(N(C)c3cccc(Cl)c3)n2)cc1OC [Example 11-50]	< 500	–
COc1ccc(-c2cc3nccn3c(N3CCN(c4ccc(C(C)=O)cc4)CC3)n2)cc1OC [Example 9-36]	2000 to 10000	–
COc1ccc(-c2cc3nccn3c(Nc3ccccc3S(=O)(=O)N(C)C)n2)cc1OC [Example 11-123]	< 500	–
CCCSc1nc(-c2ccc(OC)c(OC)c2)cc2nccn12 [Example 14-17]	–	IC50 [1]: < 500 nM
COc1ccc(-c2cc3nccn3c(SCC(C)C(=O)O)n2)cc1OC (stereo not shown) [Example 9-91]	500 to 2000	–
CCSc1nc(-c2ccc(OC)c([N+](=O)[O-])c2)cc2nccn12 [Example 27]	–	IC50 [3]: < 500 nM
COc1ccc(-c2cc3nccn3c(Sc3ccc(CCC(=O)N4CCOCC4)cc3)n2)cc1OC [Example 18]	–	IC50 [3]: < 500 nM
COc1cc(-c2cc3nccn3c(Nc3ccccc3C(N)=O)n2)ccc1N1CCOCC1 [Example 9-99]	< 500	–
CCOCCOc1ccc(-c2cc3nccn3c(Nc3ccccc3)n2)cc1OCCOCC [Example 12-24]	–	IC50 [4]: 500 to 2000 nM
COC(=O)C1CCN(c2nc(-c3ccc(OC)c(OC)c3)cc3nccn23)CC1 [Example 9-67]	2000 to 10000	–
COc1ccc(-c2cc3nccn3c(Nc3ccc(I)cc3C(N)=O)n2)cc1OC [Example 11-78]	< 500	–

SMILES	IC50 [2] [nM]	further results
COc1cc(-c2cc3nccn3c(Nc3ccccc3)n2)ccc1OCc1ccccc1 [Example 12-18]	–	IC50 [4]: 500 to 2000 nM
COc1ccc(-c2cc3nccn3c(Nc3ccccc3[N+](=O)[O-])n2)cc1OC [Example 11-56]	< 500	–
COc1cc(-c2cc3nccn3c(Nc3ccccc3)n2)ccc1OCCCN1CCSCC1 [Example 12-34]	–	IC50 [4]: < 500 nM
COc1ccc(-c2cc3nccn3c(N3CCN(c4ccc(C(F)(F)F)cn4)CC3)n2)cc1OC [Example 9-50]	–	Activity grade (IC50 class) [6]: C-D
COc1ccc(-c2cc3nccn3c(Nc3ccc(Br)cc3)n2)cc1OC [Example 12-12]	–	IC50 [4]: < 500 nM
COc1ccc(-c2cc3nccn3c(Nc3ccccc3)n2)cc1OCc1ccccc1 [Example 12-27]	–	IC50 [4]: 2000 to 10000 nM
COc1ccc(-c2cc3nccn3c(N3CCN(c4ccccc4F)CC3)n2)cc1OC [Example 9-47]	2000 to 10000	–
COc1ccc(-c2cc3nccn3c(Nc3ccc4[nH]nnc4c3)n2)cc1OC [Example 11-12]	< 500	–
COc1ccc(-c2cc3nccn3c(Nc3cccc(CO)c3)n2)cc1OC [Example 11-37]	< 500	–
CCSc1nc(-c2ccc(OC)c(S(=O)(=O)NCCO)c2)cc2nccn12 [Example 2-2]	< 500	–
COc1ccc(-c2cc3nccn3c(SCCN)n2)cc1OC [Example 25]	–	IC50 [3]: < 500 nM
CCSc1nc(-c2ccc(OC)c(OCCCN3CCCCC3)c2)cc2nccn12 [Example 5-6]	500 to 2000	–
COc1ccc(-c2cc3nccn3c(NCCN3CCCCC3)n2)cc1OC [Example 9-82]	2000 to 10000	–
COc1ccc(-c2cc3ncnn3c(Nc3ncccc3O)n2)cc1OC [Example 9-17]	2000 to 10000	–
COc1ccc(CNc2nc(-c3ccc(OC)c(OC)c3)cc3nccn23)c(OC)c1 [Example 9-80]	500 to 2000	–
CCSc1nc(-c2cccs2)cc2nccn12 [Example 8-3]	500 to 2000	–
COc1ccc(-c2cc3ncnn3c(Sc3ccc(/C=C/C(=O)O)cc3)n2)cc1OC [Example 14-10]	–	IC50 [1]: < 500 nM
CCNC(=O)Oc1cc(-c2cc3nccn3c(SCC)n2)ccc1OC [Example 4-8]	< 500	–
